Results from patent US8883856B2, “Compositions and methods for the treatment of inflammatory diseases using topoisomerase inhibitors” (priority 2000, dated 2014).
Read-outs that look alike come from different tables or passages of the source.

Legend:
[1] = test system: synoviocytes (HIG.82 rabbit); assay: MTT proliferation/cytotoxicity assay, synoviocytes; type: cell-based; details: Oryctolagus cuniculus, read-out: inhibitory concentration that gave 50% effect on proliferation (IC50), synoviocytes
Protocol: (§1) Proliferation was determined using the MTT proliferation/cytotoxicity assay.
(§2) On day one, 1500-2000 smooth muscle cells (A7r5 rat embryonic thoracic aorta) or synoviocytes (HIG.82 rabbit) were plated per well on a 96-well plate, leaving the first column free of cells (blank). The plate was placed back into the 37° C., CO2 incubator. The following day camptothecin was added at various concentrations. No drugs were added to the first column (blank) and the second column (untreated column) for control. The cells were exposed for 24, 48, and 72 hours. At the end of the exposure period, 50 μl of dimethylthiazol diphenyltetrazolium bromide salt (MTT) dissolved in media was added and allowed to incubate for 4 hours at 37° C. The medium was then aspirated and 200 μl of dimethyl sulfoxide was added. The plate was agitated for 30 minutes and the absorbance read at 562 nm. The optical density measurement was converted to number of cells using a standard plot of optical density with known number of cells and cell viability was expressed as % growth (this value is the % of the control cells).

[2] = test system: smooth muscle cells (A7r5 rat embryonic thoracic aorta); assay: MTT proliferation/cytotoxicity assay, smooth muscle cells; type: cell-based; details: read-out: inhibitory concentration that gave 50% effect on proliferation (IC50), smooth muscle cells
Protocol: as §1, §2

human neutrophils = assay: Neutrophil chemiluminescence (neutrophil activation); type: cell-based; details: for IC50 / inhibition at 10 µM: Homo sapiens, Neutrophil; for IC50: read-out: IC 50, inhibition of neutrophil chemiluminescence
Protocol: Freshly prepared human neutrophils were incubated with the compound followed by stimulation of the cells with either plasma opsonized CPPD crystals, the bacterial chemoattractant, fMLP or the phorbol ester, PMA. Stimulation (or activation) of the cells induced superoxide anion generation which could be measured by the emission of light (chemiluminescence). Inhibition of neutrophil function was then determined by inhibition of chemiluminescence. Hanks buffered salt solution (HBSS) pH 7.4 was used throughout the study. All chemicals were purchased from Sigma Chemical Co. (St. Louis, Mo.) unless otherwise stated. All procedures were performed at 37° C. unless otherwise stated. CPPD (triclinic) crystals were prepared and characterized as previously reported (Jackson J K et al., J Rheumatol, 24: 341-348, 1996). The size distribution of the crystals was approximately 33% less than […]. Opsonization of crystals was carried out using 50% heparinized plasma and concentrations of 50 mg of CPPD in 1 mL of 50% plasma. Crystals were incubated with diluted plasma for 30 min at 37° C., centrifuged at 1000×g, then washed in HBSS and recentrifuged. Neutrophils were prepared from freshly collected, human, citrated whole blood. Briefly, 400 mL of blood were mixed with 80 mL of 4% dextran T500 (Pharmacia LKB, Biotechnology AB Uppsala, Sweden) in HBSS and allowed to settle for 1 h. Plasma was collected continuously and 5 mL applied to 5 mL Ficoll Paque (Pharmacia) in 15 mL polypropylene tubes (Corning, N.Y.). Following centrifugation at 500×g for 30 min, the neutrophil pellets were washed free of erythrocytes by 20 s of hypotonic shock. Neutrophils were resuspended in HBSS, kept on ice and used for experiments within 3 h. Neutrophil viability and purity was always greater than 90%.
A stock solution of drug was diluted in DMSO to give various concentrations of drug. Equal volumes of these solutions were added to neutrophils at 5×10^6 cells per mL under mild vortexing to achieve final concentrations with a final DMSO concentration of 0.25%. This DMSO concentration found to have no effect on control cell responses. Cells were incubated for 15 minutes at 37° C. before addition to crystals, fMLP or PMA.
Chemiluminescence studies were performed at a cell concentration of 5×10^6 cells per mL in HBSS with CPPD (50 mg/mL). In all experiments 0.5 mL of cells were added to 25 mg of CPPD or 1 uM fMLP (and 0.5 uM cytochalasin B) or 0.5 uM PMA in 1.5 ml Eppendorf tubes. To the tubes were added 10 uL of luminol dissolved in 25% DMSO in HBSS to give a final concentration of 1 μM and the samples were mixed to initiate neutrophil activation. Chemiluminescence was monitored using an LKB Luminometer (Model 1250) at 37° C. with shaking immediately prior to measurements to resuspend the crystals. Control tubes contained cells, drug and luminol (crystals absent).

[3] = In vitro drug release from polymeric formulations; type: physicochemical
collagenase gene = assay: IL-1 induced collagenase gene expression in chondrocytes; type: cell-based, calf
Excerpt: (§3) This assay measures the levels of RNA for the two metalloproteinases, collagenase and stromelysin. Over-expression of these genes results in excessive synthesis and secretion of these two enzymes from articular chondrocytes and may represent part of the pathophysiology of rheumatoid arthritis. Agents that inhibit over-expression of collagenase and stromelysin can be antiarthritc agents. […] Proteoglycan gene expression is part of the normal physiology of chondrocytes.
(§4) Primary chondrocyte culture was freshly isolated from calf cartilage. The cells were plated (at 2.5×10^6/mL) in 100×20 mm culture dishes and incubated in Ham's F12 medium containing 5% fetal bovine serum (FBS) overnight at 37° C. The cells were starved with serum-free medium overnight. […] Then IL-1 (20 ng/mL) was added to each plate and the plates were incubated for an additional 18 hours. Total RNA was isolated by the acidified guanidine isothiocyanate method and subjected to electrophoresis on a denatured gel. Denatured RNA samples (15 ug) were analyzed by gel electrophoresis in a 1% denaturing gel, transferred to a nylon membrane, and hybridized respectively with the ^32P-labelled collagenase cDNA probe, ^32P-labelled stromelycin cDNA probe, ^32P-labelled proteoglycan cDNA probe and ^32P-labelled glyceraldehyde phosphate dehydrogenase (PAGDH) cDNA. The PAGDH levels acted as an internal standard to ensure roughly equal loading. The experimental results on X-ray films were scanned and analyzed with HP ScanJet.

stromelycin gene = assay: IL-1 induced stromelycin gene expression in chondrocytes; type: cell-based, calf; details: for stromelysin expression: 1×10^−6 M
Excerpt: as §3, §4

[4] = three agonists: CPPD crystals, fMLP, PMA
[5] = ethylene vinyl acetate films, PBS pH 7.4, 37° C.
[6] = polycaprolactone paste, PBS, 37° C.
[7] = chitosan films, PBS pH 7.4, 37° C.
[8] = poly(L-lactic acid) microspheres, PBS pH 7.4, 37° C.
[9] = triblock copolymer/MePEG paste, PBS pH 7.4 with n-octanol, 37° C.
[10] = polycaprolactone microspheres, PBS pH 7.4, 37° C.

Structure (SMILES) | IC50 ([1]; 48 hours exposure) | IC50 ([2]; A7R5, 48 hours exposure) | IC50 (human neutrophils; [4]) | drug release profile [3, 5] | drug release profile [3, 6] | IL-1 induced collagenase gene expression (collagenase gene; 1×10^−5 M) | IL-1 induced stromelycin gene expression (stromelycin gene; 1×10^−5 M) | IC50 ([1]; 48 h) | IC50 ([2]; A7R5, 48 h) | inhibition of neutrophil chemiluminescence (human neutrophils; concentration printed as (5%)) | effect of addition of MePEG to the PCL on release rate ([3]; 10% and 20% camptothecin loaded PCL paste, 20% MePEG) | drug release profile [3, 7] | drug release profile [3, 8] | drug release profile [3, 9] | IL-1 induced collagenase gene expression (collagenase gene; 1×10^−7 M) | IL-1 induced stromelycin gene expression (stromelycin gene; 1×10^−7 M) | inhibition at 10 µM (human neutrophils) | stromelysin expression (stromelycin gene) | IC50 (human neutrophils; activation by MSUM crystals) | drug release profile [3, 10]
CC1(C)CCC2=C(O1)c1ccccc1C(=O)C2=O [beta-lapachone] | 5.6 µM | 6.3 µM | 1 to 10 µM | initial burst of drug release followed by a slow sustained release | initial burst of drug release followed by a slow sustained release | almost completely inhibited | almost completely inhibited | – | – | – | – | – | – | – | – | – | – | – | – | –
CC[C@@]1(O)C(=O)OCc2c1cc1n(c2=O)Cc2cc3ccccc3nc2-1 [camptothecin] | – | – | – | initial burst of drug release followed by a slow sustained release | initial burst of drug release followed by a slow sustained release | – | – | 0.065 µM | 1.6 µM | 2% | accelerated the release rate | initial burst of drug release followed by a slow sustained release | initial burst of drug release followed by a slow sustained release | initial burst of drug release followed by a slow sustained release | almost completely inhibited | almost completely inhibited | – | – | – | –
COc1cccc2c1C(=O)c1c(O)c3c(c(O)c1C2=O)C[C@@](O)(C(=O)CO)C[C@@H]3O[C@H]1C[C@H](N)[C@H](O)[C@H](C)O1 [doxorubicin] | 0.1 µM | 0.6 µM | – | initial burst of drug release followed by a slow sustained release | initial burst of drug release followed by a slow sustained release | completely inhibited | completely inhibited | – | – | – | – | – | – | – | – | – | 13% | partial inhibition | – | –
COc1cc([C@@H]2c3cc4c(cc3[C@@H](O[C@@H]3O[C@@H]5CO[C@@H](C)O[C@H]5[C@H](O)[C@H]3O)[C@H]3COC(=O)[C@H]23)OCO4)cc(OC)c1O [etoposide] | ~15 µM | ~15 µM | – | initial burst of drug release followed by a slow sustained release | initial burst of drug release followed by a slow sustained release | inhibited | inhibited | – | – | – | – | – | – | – | – | – | 25% | – | – | –
CC1=CC(=O)c2ccccc2C1=O [menadione] | 15 µM | 8.2 µM | – | – | initial burst of drug release followed by a slow sustained release | inhibited | inhibited | – | – | – | – | – | – | – | – | – | – | – | 0.5 to 1 µg/mL | initial burst of drug release followed by a slow sustained release
CC1=CC(=O)c2c(O)cccc2C1=O [plumbagin] | 3.6 µM | 2.6 µM | < 1 µg/mL | initial burst of drug release followed by a slow sustained release | initial burst of drug release followed by a slow sustained release | completely inhibited | completely inhibited | – | – | – | – | initial burst of drug release followed by a slow sustained release | initial burst of drug release followed by a slow sustained release | initial burst of drug release followed by a slow sustained release | – | – | – | partial inhibition | – | initial burst of drug release followed by a slow sustained release
